Test results published in article PMC7479006, “Effect of high-fat diet on the pharmacokinetics and safety of flumatinib in healthy Chinese subjects” (Cancer Chemotherapy and Pharmacology, 2020).
Like-named read-outs stand apart in the source and are kept apart here.

Tests used:
[1] = human, in vivo
Protocol: (§1) The subjects were randomized 24 h in advance in one of the two following groups. Group A: at least 10 h after fasting, oral flumatinib administration of 400 mg (2 tablets, day 1, first dose); the washout period was 14 days, half an hour after high-fat diet (timed from the start of diet) oral flumatinib administration of 400 mg (2 tablets, day 15,second dose). Subjects in group B followed the opposite administration sequence from those in group A. In groups A and B, the high-fat diet contained 800 ~ 1000Kcal (about 50% from fat) (meal composition is detailed Table 1).
(§2) Blood samples for pharmacokinetic (PK) evaluation were collected at 0 h before the initiation of dosing (pre-dose), and at 0.5, 1, 1.5, 2, 2.5, 3, 4, 5, 6, 8, 10, 12, 24, 48, 72, and 96 h after dosing. Blood samples were centrifuged at 2000g for 10 min at 4 ℃. Centrifugation was completed within 60 min after sample collection. The plasma was stored at − 70 °C for further analysis. Plasma concentrations of flumatinib and its main metabolites (M1 and M3) were determined using liquid chromatography-mass spectrometry (LC–MS/MS) [20].
(§3) Phoenix WinNonlin Version 7.0 (Pharsight Corporation, Sunnyvale, CA, USA) software was used to calculate the pharmacokinetic parameters (Tmax, Cmax, AUC0–t, AUC0–∞, t1/2, V/F, CL/F) of flumatinib and its main metabolites using a non-compartmental method (NCA module). Linear Up Log Down trapezoidal method was used for AUC calculation. The BE module of WinNonLin was used to analyze AUC0–t, AUC0–∞, and Cmax of flumatinib in fed and fasting states after logarithmic conversion. The treatment group (fasting, high-fat diet), the treatment sequence (A, B), and treatment phase were fixed effects in the model, and the subjects nested in the sequence were random effects. The adjusted mean difference (fasting/high-fat diet) and its 90% confidence interval estimated by the model, were taken as the negative number to obtain the corresponding PK parameter geometric mean ratio (postprandial/fasting), to estimate its 90% confidence interval, and to evaluate the effect of a high-fat diet on the pharmacokinetics of flumatinib.

[2] = in vivo; cited from earlier work
[3] = beagles, oral administration, preclinical studies; cited from earlier work
[4] = set-up: method as in PMID 20703259; details: doses in the range of 200–1000 mg; cited from earlier work
[5] = Safety evaluation (adverse events, NCI CTCAE v4.03) after a single oral 400 mg dose of flumatinib mesylate; type: in vivo, human (healthy Chinese subjects); set-up: TEAE, Incidence rate / TEAE related to the study drug, Incidence rate / SAE related to the study drug, Incidence rate / TEAE related to death, Incidence rate / TEAE related to withdrawal, Incidence rate: unit not given here
Protocol: All subjects who participated in the study were included in the safety analysis. Safety was evaluated by vital signs, physical examination, ECG, laboratory examination, adverse events (AEs), and combined medication. All adverse events that occurred during the trial were classified into mild, moderate and severe levels based on NCI CTCAE v4.03.

[6] = Biopharmaceutics Classification System (BCS) class; type: physicochemical; details: based on the BCS Guidance of the year 2000
[7] = rats, oral administration, preclinical studies; cited from earlier work
[8] = preclinical studies; tissue drug concentration higher than plasma concentration; cited from earlier work
[9] = Pharmacokinetics of flumatinib, M1 and M3 in plasma after a single oral 400 mg dose of flumatinib mesylate tablets, fasting vs high-fat diet (LC-MS/MS, non-compartmental); details: for AUC0-∞ LSGM ratio high-fat diet/fasting (%) (90% CI) / AUC0–t LSGM ratio high-fat diet/fasting (%) (90% CI) / Cmax LSGM ratio high-fat diet/fasting (%) (90% CI): N = 11, single oral 400 mg; for AUC(0-inf) / AUC(0-t) / Cmax / MRT / Tmax / half-life: human, po, 400 mg; for Tmax: Tmax median(range)
Protocol: as §1, §2, §3

[10] = set-up: method as in PMID 26096139; details: healthy subjects; cited from earlier work
[11] = set-up: method as in PMID 18024884; details: cited from earlier work
[12] = set-up: method as in PMID 25511575; details: healthy subjects; cited from earlier work
[13] = Fasting, the first period (N = 6)
[14] = Fasting, the second period (N = 5)
[15] = High-fat diet, the first period (N = 6)
[16] = High-fat diet, the second period (N = 6)
[17] = Fasting (N = 11), mean ± SD, single oral 400 mg, listed as Flumatinib
[18] = High-fat diet (N = 12), mean ± SD, single oral 400 mg
[19] = High-fat diet (N = 12), mean ± SD, single oral 400 mg, listed as Flumatinib

Cc1ncc(NC(=O)c2ccc(CN3CCNCC3)c(C(F)(F)F)c2)cc1Nc1nccc(-c2cccnc2)n1 [M1, N-desmethyl flumatinib]
AUC0–t [1]: 231 ± 101 ng·h/mL | Cmax [1]: 54.7 ± 25.5 ng/mL | Increase of AUC0–t after high-fat diet over fasted state ([1]; po, 400 mg): 1.6 fold | Increase of AUC0–∞ after high-fat diet over fasted state ([1]; po, 400 mg): 1.6 fold | Increase of Cmax after high-fat diet over fasted state ([1]; po, 400 mg): 1.9 fold | Metabolite in plasma relative to the parent drug in plasma [2]: approximately 10%

Cc1ncc(NC(=O)c2ccc(CN3CCN(C)CC3)c(C(F)(F)F)c2)cc1Nc1nccc(-c2cccnc2)n1 [flumatinib]
Time to maximum blood concentration [3]: about 5 h | Dose relation of Cmax and AUC0–t [4]: linearly related to doses | SAE related to the study drug, Incidence rate [5, 13]: 0.0 | SAE related to the study drug, Number [5, 13]: 0 | SAE related to the study drug, Time [5, 13]: 0 | TEAE related to death, Incidence rate [5, 13]: 0.0 | TEAE related to death, Number [5, 13]: 0 | TEAE related to death, Time [5, 13]: 0 | TEAE related to the study drug, Incidence rate [5, 13]: 83.3 | TEAE related to the study drug, Number [5, 13]: 5 | TEAE related to the study drug, Time [5, 13]: 11 | TEAE related to withdrawal, Incidence rate [5, 13]: 0.0 | TEAE related to withdrawal, Number [5, 13]: 0 | TEAE related to withdrawal, Time [5, 13]: 0 | TEAE, Incidence rate [5, 13]: 100.0 | TEAE, Number [5, 13]: 6 | TEAE, Time [5, 13]: 14 | SAE related to the study drug, Incidence rate [5, 14]: 0.0 | SAE related to the study drug, Number [5, 14]: 0 | SAE related to the study drug, Time [5, 14]: 0 | TEAE related to death, Incidence rate [5, 14]: 0.0 | TEAE related to death, Number [5, 14]: 0 | TEAE related to death, Time [5, 14]: 0 | TEAE related to the study drug, Incidence rate [5, 14]: 60.0 | TEAE related to the study drug, Number [5, 14]: 3 | TEAE related to the study drug, Time [5, 14]: 4 | TEAE related to withdrawal, Incidence rate [5, 14]: 0.0 | TEAE related to withdrawal, Number [5, 14]: 0 | TEAE related to withdrawal, Time [5, 14]: 0 | TEAE, Incidence rate [5, 14]: 60.0 | TEAE, Number [5, 14]: 3 | TEAE, Time [5, 14]: 5 | SAE related to the study drug, Incidence rate ([5]; Fasting, total (N = 11)): 0.0 | SAE related to the study drug, Number ([5]; Fasting, total (N = 11)): 0 | SAE related to the study drug, Time ([5]; Fasting, total (N = 11)): 0 | TEAE related to death, Incidence rate ([5]; Fasting, total (N = 11)): 0.0 | TEAE related to death, Number ([5]; Fasting, total (N = 11)): 0 | TEAE related to death, Time ([5]; Fasting, total (N = 11)): 0 | TEAE related to the study drug, Incidence rate ([5]; Fasting, total (N = 11)): 72.7 | TEAE related to the study drug, Time ([5]; Fasting, total (N = 11)): 15 | TEAE related to withdrawal, Incidence rate ([5]; Fasting, total (N = 11)): 0.0 | TEAE related to withdrawal, Number ([5]; Fasting, total (N = 11)): 0 | TEAE related to withdrawal, Time ([5]; Fasting, total (N = 11)): 0 | TEAE, Incidence rate ([5]; Fasting, total (N = 11)): 81.8 | TEAE, Time ([5]; Fasting, total (N = 11)): 19 | SAE related to the study drug, Incidence rate [5, 15]: 0.0 | SAE related to the study drug, Number [5, 15]: 0 | SAE related to the study drug, Time [5, 15]: 0 | TEAE related to death, Incidence rate [5, 15]: 0.0 | TEAE related to death, Number [5, 15]: 0 | TEAE related to death, Time [5, 15]: 0 | TEAE related to the study drug, Incidence rate [5, 15]: 50.0 | TEAE related to the study drug, Number [5, 15]: 3 | TEAE related to the study drug, Time [5, 15]: 6 | TEAE related to withdrawal, Incidence rate [5, 15]: 16.7 | TEAE related to withdrawal, Number [5, 15]: 1 | TEAE related to withdrawal, Time [5, 15]: 1 | TEAE, Incidence rate [5, 15]: 100.0 | TEAE, Number [5, 15]: 6 | TEAE, Time [5, 15]: 18 | SAE related to the study drug, Incidence rate [5, 16]: 0.0 | SAE related to the study drug, Number [5, 16]: 0 | SAE related to the study drug, Time [5, 16]: 0 | TEAE related to death, Incidence rate [5, 16]: 0.0 | TEAE related to death, Number [5, 16]: 0 | TEAE related to death, Time [5, 16]: 0 | TEAE related to the study drug, Incidence rate [5, 16]: 66.7 | TEAE related to the study drug, Number [5, 16]: 4 | TEAE related to the study drug, Time [5, 16]: 6 | TEAE related to withdrawal, Incidence rate [5, 16]: 0.0 | TEAE related to withdrawal, Number [5, 16]: 0 | TEAE related to withdrawal, Time [5, 16]: 0 | TEAE, Incidence rate [5, 16]: 66.7 | TEAE, Number [5, 16]: 4 | TEAE, Time [5, 16]: 7 | SAE related to the study drug, Incidence rate ([5]; High-fat diet, total (N = 12)): 0.0 | SAE related to the study drug, Number ([5]; High-fat diet, total (N = 12)): 0 | SAE related to the study drug, Time ([5]; High-fat diet, total (N = 12)): 0 | TEAE related to death, Incidence rate ([5]; High-fat diet, total (N = 12)): 0.0 | TEAE related to death, Number ([5]; High-fat diet, total (N = 12)): 0 | TEAE related to death, Time ([5]; High-fat diet, total (N = 12)): 0 | TEAE related to the study drug, Incidence rate ([5]; High-fat diet, total (N = 12)): 58.3 | TEAE related to the study drug, Time ([5]; High-fat diet, total (N = 12)): 12 | TEAE related to withdrawal, Incidence rate ([5]; High-fat diet, total (N = 12)): 8.3 | TEAE related to withdrawal, Number ([5]; High-fat diet, total (N = 12)): 1 | TEAE related to withdrawal, Time ([5]; High-fat diet, total (N = 12)): 1 | TEAE, Incidence rate ([5]; High-fat diet, total (N = 12)): 83.3 | TEAE, Time ([5]; High-fat diet, total (N = 12)): 25 | TEAE incidence ([5]; fasting group): 81.8% | TEAE related to the study drug, incidence ([5]; fasting group): 72.7% | TEAE incidence ([5]; high-fat diet group): 83.3% | TEAE related to the study drug, incidence ([5]; high-fat diet group): 58.3% | Safety and tolerability ([5]; single oral dose of 400 mg, fasting or high-fat diet): safe and well tolerated | BCS class [6]: BCS Class III | Time to maximum blood concentration [7]: about 5 h | Tissue distribution [8]: widely distributed in tissues | CL/F ([9]; Fasting (N = 11), mean ± SD, single oral 400 mg): 399 ± 229 L/h | CL/F [9, 17]: 661 ± 380 L/h | V/F [9, 17]: 11,700 ± 5130 L | CL/F [9, 18]: 661 ± 380 L/h | V/F [9, 18]: 11700 ± 5130 L | CL/F [9, 19]: 399 ± 229 L/h | V/F [9, 19]: 8470 ± 4130 L | AUC0-∞ LSGM ratio high-fat diet/fasting (%) (90% CI) [9]: 166.87% | AUC0–t LSGM ratio high-fat diet/fasting (%) (90% CI) [9]: 167.43% | Cmax LSGM ratio high-fat diet/fasting (%) (90% CI) [9]: 281.65% | AUC0-∞ LSGM ratio high-fat diet/fasting (%) (90% CI) ([9]; listed as Flumatinib): 167 (143, 194) % | AUC0–t LSGM ratio high-fat diet/fasting (%) (90% CI) ([9]; listed as Flumatinib): 167 (144, 195) % | Cmax LSGM ratio high-fat diet/fasting (%) (90% CI) ([9]; listed as Flumatinib): 282 (226, 351) % | AUC(0-inf) ([9]; plasma, AUC0-∞ (least-square geometric mean), Fasting (N = 11), food-effect analysis, single oral 400 mg): 710 ng·h/mL | AUC(0-inf) ([9]; plasma, AUC0-∞ (least-square geometric mean), High-fat diet (N = 11), food-effect analysis, single oral 400 mg): 1180 ng·h/mL | AUC(0-inf) ([9]; plasma, AUC0-∞, Fasting (N = 11), mean ± SD, single oral 400 mg): 847 ± 572 ng·h/mL | AUC(0-inf) ([9]; plasma, AUC0-∞, High-fat diet (N = 12), mean ± SD, single oral 400 mg): 1280 ± 586 ng·h/mL | AUC(0-t) ([9]; plasma, AUC0–t (least-square geometric mean), Fasting (N = 11), food-effect analysis, single oral 400 mg): 696 ng·h/mL | AUC(0-t) ([9]; plasma, AUC0–t (least-square geometric mean), High-fat diet (N = 11), food-effect analysis, single oral 400 mg): 1170 ng·h/mL | AUC(0-t) ([9]; plasma, AUC0–t, Fasting (N = 11), mean ± SD, single oral 400 mg): 832 ± 566 ng·h/mL | AUC(0-t) ([9]; plasma, AUC0–t, High-fat diet (N = 12), mean ± SD, single oral 400 mg): 1260 ± 582 ng·h/mL | Cmax ([9]; plasma, Cmax (least-square geometric mean), Fasting (N = 11), food-effect analysis, single oral 400 mg): 43.7 ng/mL | Cmax ([9]; plasma, Cmax (least-square geometric mean), High-fat diet (N = 11), food-effect analysis, single oral 400 mg): 123 ng/mL | Cmax ([9]; plasma, Cmax, Fasting (N = 11), mean ± SD, single oral 400 mg): 50.7 ± 32.5 ng/mL | Cmax ([9]; plasma, Cmax, High-fat diet (N = 12), mean ± SD, single oral 400 mg): 132 ± 54.5 ng/mL | MRT ([9]; plasma, Fasting (N = 11), mean ± SD, single oral 400 mg): 17.2 ± 3.66 h | MRT ([9]; plasma, High-fat diet (N = 12), mean ± SD, single oral 400 mg): 19.2 ± 3.37 h | Tmax ([9]; plasma, Fasting (N = 11), single oral 400 mg): 2.5 h | Tmax ([9]; plasma, High-fat diet (N = 12), single oral 400 mg): 3 h | half-life ([9]; plasma, t1/2, Fasting (N = 11), mean ± SD, single oral 400 mg): 13.3 ± 2.52 h | half-life ([9]; plasma, t1/2, High-fat diet (N = 12), mean ± SD, single oral 400 mg): 15.5 ± 4.67 h | Increase in the exposure when taken with food ([9]; single oral 400 mg): 67% | Increase of AUC0–∞ after high-fat diet over fasted state ([9]; single oral 400 mg, plasma): 1.6 fold | Increase of Cmax after high-fat diet over fasted state ([9]; single oral 400 mg, plasma): nearly tripled

N#Cc1ccnc(N2C(=O)CC[C@H]2C(=O)N(c2cncc(F)c2)[C@H](C(=O)NC2CC(F)(F)C2)c2ccccc2Cl)c1 [ivosidenib]
Increase in Cmax after a high-fat diet compared to fasting [10]: 98%

CS(=O)(=O)CCNCc1ccc(-c2ccc3ncnc(Nc4ccc(OCc5cccc(F)c5)c(Cl)c4)c3c2)o1 [lapatinib]
Increase in bioavailability after high-fat diet [11]: 325% | Increase in bioavailability after low-fat diet [11]: 167%

Cc1cn(-c2cc(NC(=O)c3ccc(C)c(Nc4nccc(-c5cccnc5)n4)c3)cc(C(F)(F)F)c2)cn1 [nilotinib]
AUC higher when taken with food than fasting [12]: 82% | Cmax higher when taken with food than fasting [12]: 112%
